Measured values from US8030442B2, “Treatment of injury to the brain by inhibition of acid sensing ion channels” (priority 2004, dated 2011).
Like-named read-outs stand apart in the source and are kept apart here.

Experiments:
cortical neurons [1] = assay: LDH release after 1 hr oxygen-glucose deprivation combined with acidosis; format: cell-based, mouse; settings: n=8-11
Experimental: To determine if activation of ASICs in ischemic conditions produced greater neuronal injury, neurons from P1 ASIC1^+/+ and ASIC1^−/− mice were subjected to 1 hr acid treatment under oxygen and glucose deprivation.
(§1) Following anesthesia with halothane, cerebral cortices were dissected from PI ASIC1^+/+ and ASIC1^−/− mice and incubated with 0.05% trypsin-EDTA for 10 min at 37° C. Tissues were then triturated with fire-polished glass pipettes and plated on poly-L-ornithine-coated 24-well plates or 25×25 mm glass coverslips at a density of 2.5×10^5 cells per well or 10^6 cells per coverslip. Neurons were cultured with MEM supplemented with 10% horse serum (for E16 cultures) or Neurobasal medium supplemented with B27 (for P1 cultures) and used for electrophysiology and toxicity studies after 12 days. Glial growth was suppressed by addition of 5-fluoro-2-deoxyuridine and uridine, yielding cultured cells with ˜90% neurons as determined by NeuN and GFAP staining (data not shown).
[…]. Oxygen-glucose deprivation was terminated after 1 hr by replacing the glucose-free ECF with Neurobasal medium and incubating the cultures in a normal cell culture incubator.
Aarts et al. (2003) have recently studied ischemia molded by prolonged oxygen-glucose deprivation (2 hr) but without acidosis. […]

[2] = system: transient focal ischemia (middle cerebral artery occlusion); settings: mouse, in vivo; for percentage of the infarct: iv
Experimental: Ischemia was induced by introducing a coated filament (6.0; Doccol) from the external carotid artery into the internal carotid artery and advancing it into the arterial Will's Circle, thereby occluding the middle cerebral artery (32). Rectal and temporalis muscle temperature was maintained at 37° C.±0.5° C. with a thermostatically controlled heating pad and lamp. Cerebral blood flow was monitored by transcranial laser doppler. All surgical procedures were performed under an operating stereomicroscope.

[3] = mouse, in vivo
Experimental: We have, therefore, measured brain pH continuously with a fiber optic pH sensor in the ipsilateral and contralateral parietal cortex of mice immediately after the removal of the middle cerebral artery suture, to determine the degree, distribution, and the time course of acidosis following focal ischemia. Cerebral pH was evaluated in sham-operated animals, in vehicle-treated animals, in PcTX venom-treated animals, and in sodium bicarbonate treated animals. Values are mean±SE (n=3 for each group).
(§2) Cerebral blood flow was monitored by transcranial laser doppler. All surgical procedures were performed under an operating stereomicroscope.
For continuous measurement of pH in the brain, a fiber optic pH micro system (pHOptica, WPI) was used. This system has a pH range between 5 and 9, and the resolution is ±0.003 units. A glass-fiber with its pH-sensitive tip ([…]) was stereotaxically implanted into the brain immediately after the middle cerebral artery occlusion at the following coordinates from the bregma: 2.4 mm laterally, 0.1 posteriorly and 2.2 mm deep. pH was continuously measured for 6 h. The instrument was calibrated with standard solutions (pH 4.0, 5.0, 6.0, 7.0, 8.0, and 9.0) before and after the experiments. […] Changes in pH values were evaluated after PcTX and NaHCO3 intracerebroventricularly or intravenous administration 2 hours after occlusion.

[4] = system: 60 min middle cerebral artery occlusion; assay: Mouse 60 min middle cerebral artery occlusion, memantine with or without PcTX venom, infarct volume; format: in vivo; settings: n=5
[5] = system: transient focal ischemia (middle cerebral artery occlusion); format: in vivo, mouse; settings: for percentage of the infarct volume: vehicle 50.6±2.3
Experimental: To investigate the potential interaction between NMDA and ASIC1a blockade on infarct volume, memantine was administered before or after PcTX administration in rodents subjected to 60 min of middle cerebral artery occlusion and evaluated one day after ischemia induction.
as §2
Rodents were treated with saline, PcTX and/or memantine according to the following schedule: Saline IP administered 30 min after middle cerebral artery occlusion; PcTX 15: (0.5 μL, 500 ng/mL) administered 15 min after middle cerebral artery occlusion; Memantine 30 (1 mL, 10 mg/kg) administered 30 min after middle cerebral artery occlusion; PcTx15 min/Memantine 30, 60 120; PcTX (0.5 μL, 500 ng/mL) administration 15 min after middle cerebral artery occlusion followed by IP Memantine (1 mL, 10 mg/kg) administration 30 min, 60 min, or 120 min after PcTX. Memantinel 5/PcTx 180, 300, 360: Memantine (1 mL, 10 mg/kg) administration IP 15 min after middle cerebral artery occlusion followed by intracerebraventricular PcTX (0.5 μL, 500 ng/mL) 180 min, 300 min, or 360 min after Memantine. N=5 animals per group.
FIG. 18 is a graph presenting exemplary data from experiments measuring the percentage of brain infarct volume as a function of the time (in minutes) of administration of memantine after mid-cerebral artery occlusion, in accordance with aspects of the present teachings. Memantine's time window (1 mL, 10 mg/kg). Memantine (0.1 mL, 10 mg/kg) or saline solution (1 mL) was IP-administered 15 minutes, 1 h, or 3 h after ischemia induction. […] Each column represents the mean±SE of the percentage of the infarct compared to the ipsilateral hemisphere.

[6] = system: cortical neurons cultured from ASIC+/+ and ASIC1-/- mice; assay: LDH release in neurons cultured from ASIC+/+ and ASIC1-/- mice; format: cell-based, mouse; settings: ASIC1-/- neurons, 1 hr 1 mM NMDA+10 μM glycine, Mg2+-free pH 7.4 ECF, n=4
Experimental: as §1
Cells were treated with either pH 7.4 or 6.0 ECF for 1 hr. LDH release was measured 24 hr after acid incubation. […] Background absorbance at 620 was subtracted.

cortical neurons [7] = format: cell-based, mouse; settings: preincubation 1 μM, n=6

In the case of COC(=O)[C@@H](N)CCCNC(=N)N[N+](=O)[O-] [L-NAME], the “combined 1 hr oxygen-glucose deprivation/acidosis-induced neuronal injury” value (cortical neurons [1]; 300 μM) is reported as “neither trolox (500 μM) nor L-NAME (300 μM) had significant effect”.
With O=C([O-])O.[Na+] [bicarbonate, sodium bicarbonate] the relative infarct volume [2] was 34.5±1.27%, the “percentage of the infarct” value ([2]; 2.5 mg/kg) was 61.51±5.03% and the “percentage of the infarct” value ([2]; 5 mg/kg) was 55.4±7.89%. For the same molecule, the “brain pH value after administration” value [3] was 7.25±0.25 and the “modifying brain pH” value ([3]; iv) was “less effective”.
CC12CC3CC(C)(C1)CC(N)(C3)C2 [memantine] gave an infarct volume ([4]; ASIC1-/- mice, memantine ip) of 27.7±1.6 mm^3, an infarct volume ([4]; ASIC+/+ mice, 10 mg/kg ip, saline 101.4±9.4) of 61.6±12.7 mm^3 and an infarct volume ([4]; memantine 10 mg/kg ip + aCSF icv, control 123.6±5.3) of 73.8±6.9 mm^3. The “percentage of the infarct volume” value ([5]; 1 mg/kg 1 h after MCAO, n=5) was 55.4±5.2, the “percentage of the infarct volume” value ([5]; 10 mg/kg 1 h after MCAO, n=5) was 41.0±3.4 and the “percentage of the infarct volume” value ([5]; 30 mg/kg 1 h after MCAO, n=5) was 43.4±3.8. For the same molecule, the “survival of treated ischemic mice” value ([5]; 100 mg/kg, n=5, all the mice) was “died” and the infarct volume ([5]; memantine alone ip 1 h after MCAO (time window, FIG. 18), saline 50.6±2.3, n=5) was 40.3±4.3%.
With CN[C@H](CC(=O)O)C(=O)O [NMDA] the “LDH release at 24 hr, % of maximal” value [6] was 84.8%±1.4%.
For C/C=C(/C)C(=O)O[C@H]1C(C)=C2[C@H]([C@@H]1OC(=O)CCCCCCC)[C@@](C)(OC(C)=O)C[C@H](OC(=O)CCC)[C@@]1(O)[C@H]2OC(=O)[C@@]1(C)O [thapsigargin], the “sustained component of acid-induced Ca2+ increase” value (cortical neurons [7]) was “partially inhibited”.
For Cc1c(C)c2c(c(C)c1O)CCC(C)(C(=O)O)O2 (centres unmarked) [trolox], the “combined 1 hr oxygen-glucose deprivation/acidosis-induced neuronal injury” value (cortical neurons [1]; 500 μM) was “neither trolox (500 μM) nor L-NAME (300 μM) had significant effect”.
